Patent publication US12492194B2, “HPK1 inhibitors” (Janssen Pharmaceutica NV, priority 2019, dated 2025)

Columns and labels:
full-length human Hpk1 = target: T1, full-length human Hpk1 (Homo sapiens, UniProt Q92918); test: HPK1 kinase assay (ADP Glo Kinase Assay); assay type: biochemical; conditions: full-length human GST-Hpk1, ADP Glo, 75 μM ATP; read-out: Hpk1 biochemical (pIC50) (converted)
T1 construct: A recombinant fusion protein consisting of full-length human Hpk1; GST (N)
Protocol: Pharmacological Part HPK1 Kinase Assay
A recombinant fusion protein consisting of full-length human Hpk1 with an N-terminal Glutatione S-transferase (GST) tag was produced in a baculovirus/insect cell expression system. GST-Hpk1 protein was purified from cell lysates by glutathione sepharose affinity chromatography. Kinase inhibition was determined using the ADP Glo™ Kinase Assay kit (Promega, V9101). Test compounds were prepared by serial dilution in dimethyl sulfoxide (DMSO) and 0.1 μl of each dilution was spotted onto a 384-well white Proxiplate (Perkin Elmer, 6008289). 8 μl of kinase assay buffer (40 mM Tris pH 7.5, 2 mM dithiothreitol (DTT), 0.05% Bovine Serum Albumin, 5 mM MgCl2) containing Hpk1 protein was transferred to each well and incubated for 30-45 minutes at room temperature. The enzymatic reaction was started by adding 2 μl of kinase assay buffer containing 75 μM ATP. After 120 minutes, the reaction was stopped by adding 3 μl of ADP Glo™ reagent (Promega, V9101) and incubating 45 minutes at room temperature.

Hpk1 = Hpk1 (Homo sapiens, UniProt Q92918); test: SLP76 phosphorylation assay (SLP76 pS376 in lysates of HEK293 cells engineered to express Hpk1 and SLP76); assay type: cell-based; conditions: HEK293 cells expressing Hpk1 and SLP76, 4 hours incubation; read-out: pSLP76 (HEK293) (pIC50) (converted)
Hpk1, sequence (Q92918 whole entry): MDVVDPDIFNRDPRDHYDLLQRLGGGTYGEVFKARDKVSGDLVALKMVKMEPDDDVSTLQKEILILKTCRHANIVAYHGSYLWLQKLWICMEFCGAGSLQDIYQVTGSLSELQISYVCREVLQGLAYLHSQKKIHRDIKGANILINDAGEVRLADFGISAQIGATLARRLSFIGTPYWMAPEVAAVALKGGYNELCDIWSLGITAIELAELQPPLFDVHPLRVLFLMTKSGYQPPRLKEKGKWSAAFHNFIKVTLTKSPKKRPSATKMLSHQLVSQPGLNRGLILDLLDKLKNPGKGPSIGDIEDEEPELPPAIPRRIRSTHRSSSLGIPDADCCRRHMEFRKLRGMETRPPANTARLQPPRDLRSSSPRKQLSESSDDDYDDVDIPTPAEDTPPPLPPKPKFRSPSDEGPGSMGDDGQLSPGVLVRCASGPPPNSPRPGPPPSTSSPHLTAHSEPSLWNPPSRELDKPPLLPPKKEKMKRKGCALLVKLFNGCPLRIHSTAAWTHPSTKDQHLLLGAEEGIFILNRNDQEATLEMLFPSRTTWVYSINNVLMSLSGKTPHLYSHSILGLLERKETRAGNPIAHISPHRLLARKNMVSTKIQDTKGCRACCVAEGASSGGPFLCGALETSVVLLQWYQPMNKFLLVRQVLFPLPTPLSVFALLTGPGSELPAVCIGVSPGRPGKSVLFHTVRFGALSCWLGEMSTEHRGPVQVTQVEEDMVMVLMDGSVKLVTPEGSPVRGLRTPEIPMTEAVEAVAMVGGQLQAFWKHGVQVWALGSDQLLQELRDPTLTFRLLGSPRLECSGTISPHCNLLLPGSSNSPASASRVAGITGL
Protocol: SLP76 Phosphorylation Assay
Hpk1 inhibition in cells was determined by detection of SLP76 phosphorylation at S376 in lysates from HEK293 cells engineered to express Hpk1 and SLP76. Serial dilutions of test compounds were prepared in cell culture medium and 20 μl was transferred into each well of a 96-well plate containing HEK293 cells in 180 μl of culture medium. After incubation for 4 hours at 37° C./5% CO2, the culture medium was removed, plates were put on ice and cells washed with cold Minimal Essential Medium before lysing in 90 μl of cold Mammalian Protein Extraction Reagent (Thermo Scientific, 78501) for 30 minutes on ice. The cell lysates were transferred to another 96-well plate, centrifuged 10 minutes at 3000 rcf (4° C.) and 30 μl transferred to a 96-well High-bind plate (MSD, L15XB-3). After coating overnight at 4° C., the cell lysate was removed, wells were washed with base buffer (TBS, 0.2% Tween-20), and blocking solution (base buffer containing 3% MSD blocker A) was added to each well for 1 hour at room temperature. The blocking solution was removed, the wells were washed with base buffer, and detection antibody (SLP76 pS376) was added in 25 μl base buffer containing 1% MSD blocker A to each well. After a 2 h incubation at room temperature, the detection antibody was removed, wells were washed four times with base buffer, 25 μl SULFO-TAG labeled goat anti-rabbit secondary antibody (MSD, R32AB-1) in base buffer containing 1% MSD blocker A was added to each well and left for 1 hour at room temperature. Wells were washed 4 times with base buffer, 150 μl Read Buffer T was added to each well, and the plates were read in a Mesoscale plate reader (MSD). IC50 values were determined by curve-fitting the electrochemiluminescent signals obtained from the lysates of HEK293 cells expressing Hpk1 and SLP76 treated with test compounds at various concentrations minus the signal obtained from HEK293 cells expressing SLP76 only.

T1 sequence (Q92918 whole entry, the tested form may be a part): as the sequence (Q92918 whole entry) above

IC50 (full-length human Hpk1) [nM] | IC50 (Hpk1) [nM] | Compound
18.6 | 1230 | Nc1ncc(-c2ccc(C3CCOCC3)c([C@H]3COCCCN3)c2)cc1-c1ccncc1 (single isomer, unassigned) [Co. 93b]
21.4 | > 10000 | Nc1ncc(-c2ccc(C3CCOCC3)c([C@@H]3CCCN3)c2)nc1-c1ccnc(F)c1 [Co. 43]
10.2 | 776 | Nc1ncc(-c2ccc(C3CCOCC3)c([C@@H]3CC4(CC4)CN3)c2)cc1-c1ccnc(F)c1 (single isomer, unassigned) [Co. 5a]
40.7 | 2290 | CN(C)Cc1cc(-c2cnc(N)c(-c3ccncc3F)c2)ccc1C1CCOCC1 [Co. 72]
2.75 | 339 | CC(C)n1cc(-c2cc(-c3ccc(C4CCOCC4)c([C@@H]4CCCN4)c3)cnc2N)cn1 [Co. 22]
575 | > 10000 | Nc1ncc(-c2ccc(C3CCOCC3)c(-c3cnn[nH]3)c2)cc1-c1ccncc1 [Co. 15]
178 | 7410 | CN(Cc1cc(-c2cnc(N)c(-c3ccncc3)c2)ccc1C1CCOCC1)C1CC1 [Co. 106]
6.31 | 1410 | Cn1cc(-c2cc(-c3ccc(C4CCOCC4)c([C@@H]4CCCN4)c3)cnc2N)cn1 [Co. 68]
43.7 | 2240 | Nc1ncc(-c2ccc(C3CCOCC3)c([C@@H]3CCCN3)c2)cc1C1CCOCC1 [Co. 95]
28.2 | 490 | Nc1ncc(-c2ccc(C3CCOCC3)c([C@@H]3CCCN3)c2)cc1-c1ccncc1Cl [Co. 30]
14.5 | 851 | Nc1ncc(-c2ccc(C3CCOCC3)c([C@@H]3COCCN3)c2)cc1-c1ccncc1 [Co. 80a]
3.16 | 170 | Nc1ncc(-c2ccc(C3CCOCC3)c([C@@H]3CCCN3)c2)cc1-c1nccs1 [Co. 20]
35.5 | 5010 | Nc1ncc(-c2ccc(N3CCOCC3)c(C3CCCN3)n2)cc1-c1ccncc1 (stereo not drawn) [Co. 11]
8.71 | 126 | Nc1ncc(-c2ccc(C3CCOCC3)c([C@@H]3COCCN3)c2)cc1-c1ccnc(F)c1 [Co. 82]
7.94 | 692 | N#Cc1ccc(-c2cc(-c3ccc(C4CCOCC4)c([C@@H]4CCCN4)c3)cnc2N)cc1 [Co. 36]
28.2 | 1860 | Nc1ncc(-c2ccc(C3CCOCC3)c([C@@H]3CCCN3)c2)cc1-c1cc(F)ncc1Cl [Co. 32]
200 | > 10000 | Nc1ncc(-c2ccc(C3CCOCC3)c([C@@H]3C[S@+]([O-])CCN3)c2)cc1-c1ccnc(F)c1 (single isomer, unassigned) [Co. 15b]
41.7 | 871 | Nc1ncc(-c2ccc(N3CCOCC3)c([C@@H]3CCCN3)c2)cc1-c1ccnc(F)c1 [Co. 2]
186 | 8910 | Nc1ncc(-c2ccc(C3CCOCC3)c(-c3cnc[nH]3)c2)cc1-c1ccncc1 [Co. 13]
6920 | > 10000 | Nc1ncc(-c2ccc(C3CCOCC3)c([C@H]3C[S@+]([O-])CCN3)c2)cc1-c1ccnc(F)c1 (single isomer, unassigned) [Co. 15d]
35.5 | > 10000 | Nc1ncc(-c2ccc(C3CCOCC3)c([C@@H]3CCCN3)c2)cc1-c1ccc(=O)[nH]c1 [Compound 56]
115 | 4370 | Cc1cc(-c2cc(-c3ccc(C4CCOCC4)c(CN(C)C)c3)cnc2N)ccn1 [Co. 70]
95.5 | > 10000 | Nc1ncc(-c2ccc(C3CCOCC3)c([C@@H]3CCCN3)c2)cc1C1=CCS(=O)(=O)CC1 [Co. 55]
38.9 | 851 | Nc1ncc(-c2ccc(C3CC4(COC4)C3)c([C@@H]3CCCN3)c2)cc1-c1ccnc(F)c1 [Co. 52]

IC50 (full-length human Hpk1) [nM] | IC50 (Hpk1) [nM] | Compound
20 | 2450 | Nc1ncc(-c2ccc(C3CCC(F)(F)CC3)c([C@@H]3CCCN3)c2)cc1-c1ccnc(F)c1 [Co. 50]
7.59 | 380 | Nc1ncc(-c2ccc(C3CCOCC3)c([C@@H]3CCCN3)c2)cc1-c1ccnc(F)c1 [Co. 1]
34.7 | 1950 | CN(C)Cc1cc(-c2cnc(N)c(-c3ccccc3)c2)ccc1C1CCOCC1 [Co. 76]
6.31 | 347 | Nc1ncc(-c2ccc(C3CCOCC3)c([C@@H]3CC4(CC4)CN3)c2)cc1-c1ccncc1 (single isomer, unassigned) [Co. 8a]
15.8 | 977 | Nc1ncc(-c2ccc(C3CCOCC3)c([C@@H]3CCCN3)c2)nc1C(F)(F)F [Co. 53]
4.57 | 617 | Cn1cc(-c2nc(-c3ccc(C4CCOCC4)c([C@@H]4CCCN4)c3)cnc2N)cn1 [Co. 41]
6.61 | 282 | C[C@@H]1CCN[C@@H]1c1cc(-c2cnc(N)c(-c3ccncc3)c2)ccc1C1CCOCC1 (racemic) [Co. 10]
89.1 | 4680 | CN(C)Cc1cc(-c2cnc(N)c(C(=O)NCCO)c2)ccc1C1CCOCC1 [Co. 110]
2.34 | 275 | Cc1cc(-c2cc(-c3ccc(C4CCOCC4)c([C@@H]4CCCN4)c3)cnc2N)on1 [Co. 39]
41.7 | 2040 | COc1cc(-c2cc(-c3ccc(C4CCOCC4)c(CN(C)C)c3)cnc2N)ccn1 [Co. 71]
21.4 | 851 | N#Cc1cc(-c2ccc(C3CCOCC3)c([C@@H]3COCCN3)c2)cnc1N [Co. 89]
1950 | > 10000 | C[C@@H]1CN[C@@H](c2cc(-c3cnc(N)c(-c4ccnc(F)c4)c3)ccc2C2CCOCC2)CO1 [Co. 92]
112 | 7410 | Nc1ncc(-c2cnc(N3CCOCC3)c(C3CCCN3)c2)cc1-c1ccncc1 (stereo not drawn) [Co. 12]
21.4 | 646 | Nc1ncc(-c2ccc(C3CCSCC3)c([C@@H]3CCCN3)c2)cc1-c1ccnc(F)c1 [Co. 99]
9.33 | 339 | N#Cc1cc(-c2ccc(C3CCOCC3)c([C@@H]3CCCN3)c2)cnc1N [Co. 44]
162 | 4570 | Nc1ncc(-c2ccc(C3CCOCC3)c([C@@H]3COCCCN3)c2)cc1-c1ccncc1 (single isomer, unassigned) [Co. 93a]
44.7 | 1350 | C[C@H]1COC[C@@H](c2cc(-c3cnc(N)c(-c4ccncc4)c3)ccc2C2CCOCC2)N1 (single isomer, unassigned) [Co. 83a]
20.4 | 1050 | Nc1ncc(-c2ccc(C3CCOCC3)c([C@@H]3CCCN3)c2)cc1-c1cc(F)ncc1F [Co. 31]
2.04 | 245 | Nc1ncc(-c2ccc(C3CCOCC3)c([C@@H]3CCCN3)c2)cc1-c1ccncn1 [Co. 26]
41.7 | 1120 | Nc1ncc(-c2ccc(C3=CCOC3)c([C@@H]3CCCN3)c2)cc1-c1ccnc(F)c1 [Co. 45]
19.5 | 1860 | Nc1ncc(-c2ccc(C3CCS(=O)(=O)CC3)c([C@@H]3CCCN3)c2)cc1-c1ccnc(F)c1 [Co. 100]
18.6 | 6920 | Nc1ncc(-c2ccc(C3CCOCC3)c([C@@H]3CCCN3)c2)cc1-c1cnn(CCO)c1 [Co. 21]
24.5 | 2000 | Nc1ncc(-c2ccc(C3CCOCC3)c([C@@H]3CCCN3)c2)nc1-c1ccncc1 [Co. 42]
955 | > 10000 | Nc1ncc(-c2ccc(C3CCOCC3)c([C@H]3CCCN3)c2)cc1-c1ccncc1 [Co. 25b]
